According to patent US8859617B2, “Use of furan alkyl for preparing an antidiabetic drug” (Laboratoires Expanscience, priority 2004, dated 2014):

Assays:
mice on HF/HS diet [1] = experiment: Hepatic metabolism: transaminases and alkaline phosphatase (liver toxicity); assay type: in vivo; settings: plasma; considered very moderate, does not appear to reflect liver toxicity
[2] = tested on: PGC-1 (mitochondria biogenesis); experiment: mRNA analysis in muscles and BAT: PGC-1; assay type: in vivo, mice; settings: muscle; TZD
Protocol: In the brown adipose tissue (BAT) and in the muscles, the mRNA expression of 3 genes was determined in 5 mice of each group by real-time Q-RTR-PCR analysis.

mice on HF/HS diet [3] = experiment: Weight of mice on HF/HS diet; assay type: in vivo; settings: curative; TZD added to food
Protocol: (§1) We used adult mice (aged 6 weeks) of masculine gender fattened on a high fat/high sucrose diet (HF/HS). Feeding with the HF/HS diet began on mice aged 6 weeks and continued throughout the period of the study. The study was conducted along 2 axes: • prevention: the product was administered as soon as feeding began with the HF/HS diet; • management (curative): the product was administered 12 weeks after the start of the HF/HS diet. Total treatment time (preventive and curative): 23 weeks.
(§2) Each experimental group comprised 10 mice.

mice on HF/HS diet [4] = experiment: Intra Peritoneal Insulin Sensitive Test (IPIST); assay type: in vivo; settings: preventive
Source text: The HF/HS diet induces a strong resistance to glucose. […] The test used is the Intra Peritoneal Insulin Sensitive Test—IPIST.

mice on HF/HS diet [5] = experiment: Intraperitoneal Glucose Tolerance Test (IPGTT); assay type: in vivo; settings: TZD; for Glucose resistance (IPGTT): preventive
Source text: Each study started at D-7 (i.e. 7 days before the start of the HF/HS diet) with an analysis of glucose tolerance using either an intra-peritoneal glucose tolerance test for some of the animals (n=5) or a sensitivity test to intravenous insulin for the other animals (n=5). At D=0 blood samples were taken to obtain basal condition values for all lipid and lipoprotein parameters, then the mice were randomly distributed irrespective of weight. The weight of each mouse and the quantity of food absorbed were measured twice a week. At weeks 3, 8, 15 and 23 the blood was collected after overnight fasting. At weeks 12 and 18 some of the animals (n=5) were subjected to an intra-peritoneal glucose tolerance test, the others (n=5) to a sensitivity test to intravenous insulin.
In addition this prevailing tolerance is often accompanied by insulin resistance. • Protocol: • fasted mice, • measurement of glycaemia at TO, • intra-peritoneal injection of glucose, • measurement of glycaemia 15, 30, 45, 60, 90, 120 and 180 min. after injection, • kinetics performed weeks 1, 12 and 18 in the preventive group and week 18 in the curative group.

ACO (target PPARα) = experiment: mRNA analysis in the liver (Q-RT-PCR): ACO; assay type: in vivo, mice; settings: TZD
Protocol: (§3) the liver, the mRNA expressions of 8 genes were determined in 5 mice of each group using real-time Q-RT-PCR analysis.

mice on HF/HS diet [6] = experiment: Blood glucose and insulin analysis; assay type: in vivo
Protocol: as §1, §2
(§4) Subsequently the following were analysed: lipoprotein profile (by size exclusion chromatography); apolipoportein Al; lipid composition of the liver (liver triglycerides, cholesterol and free fatty acids); histological analysis of the liver and adipose tissue; staining of accumulated lipids in the liver.

mice on HF/HS diet [7] = experiment: Blood parameters: plasma lipids (cholesterol, LDL, HDL, TG, FFA); assay type: in vivo
Protocol: as §1, §2, §4
The different cholesterol blood levels and different fractions were analysed using a HPLC method.

[8] = tested on: ME, FAS, ACC (fatty acid synthesis); experiment: mRNA analysis in the liver (Q-RT-PCR): ME, FAS, ACC; assay type: in vivo, mice; settings: TZD
Protocol: as §3

CYP7A1 = experiment: mRNA analysis in the liver (Q-RT-PCR): CYP7A1; assay type: in vivo, mice; settings: TZD
Protocol: as §3

PEPCK (target PPARγ) = experiment: mRNA analysis in the liver (Q-RT-PCR): PEPCK; assay type: in vivo, mice; settings: TZD
Protocol: as §3

mice on HF/HS diet [9] = experiment: Plasma lipoprotein profile (size exclusion chromatography); assay type: in vivo; settings: TZD
Protocol: as §1, §2, §4

[10] = curative, TZD, after 3 and 11 weeks
[11] = curative, TZD 10 mg/kg/day, (3 W***)
[12] = preventive, TZD 10 mg/kg/day, (3 W***)
[13] = preventive, TZD, after 3, 8, 15 and 23 weeks

`CN(CCOc1ccc(CC2SC(=O)NC2=O)cc1)c1ccccn1` (stereo not shown) [TZD, Rosiglitazone] was tested, and the “Alkaline phosphatase (ALP)” value (mice on HF/HS diet [1]) was “increase”, the “PGC-1 (mitochondria biogenesis) mRNA” value [2] was “↑ (muscle)” and the “Weight loss of overweight mice” value (mice on HF/HS diet [3]) was “did not cause the overweight mice to lose weight”. For the same molecule, the IPIST (mice on HF/HS diet [4]; TZD 10 mg/kg/day, (3 W***)) was “↓↓”, the “Insulin sensitivity (IPIST)” value (mice on HF/HS diet [4]; TZD, (15 min)) was “restores sensitivity to insulin” and the “Already established, diet-induced glucose resistance” value (mice on HF/HS diet [5]; curative) was “does not act”. The “Glucose resistance (IPGTT)” value (mice on HF/HS diet [5]; at 12 weeks) was “AUC value intermediate between HF/HS and normal diet”, the “Glucose resistance (IPGTT)” value (mice on HF/HS diet [5]; at 18 weeks, return to normal kinetics) was “completely cancels out the effects of the HF/HS diet” and the “ACO (target PPARα) mRNA” value (ACO (target PPARα)) was “↑”. For the same molecule, the GLUCOSE (mice on HF/HS diet [6]; curative, TZD 10 mg/kg/day, (3 W**)) was “↓↓”, the Glucose levels (mice on HF/HS diet [6]; [10]) was “dropped considerably” and the ““Constitutive” hyperglycaemia” value (mice on HF/HS diet [6]; preventive, TZD) was “return to normal”. For the same molecule, the GLUCOSE (mice on HF/HS diet [6]; preventive, TZD 10 mg/kg/day) was “↓”, the INSULIN (mice on HF/HS diet [6]; preventive, TZD 10 mg/kg/day) was “↓” and the Glucose level reduction (mice on HF/HS diet [6]; preventive, TZD, weeks 8, 15 and 23) was “no longer observed”. The Triglyceride level (mice on HF/HS diet [7]; curative, TZD) was “No change”, the LDL (mice on HF/HS diet [7]; curative, TZD 10 mg/kg/day) was “↓” and the HDL (mice on HF/HS diet [7]; [11]) was “↓↓”. The Total cholesterol (mice on HF/HS diet [7]; [11]) was “↓↓”, the HDL cholesterol level (mice on HF/HS diet [7]; [10]) was “reduction” and the LDL cholesterol level (mice on HF/HS diet [7]; [10]) was “reduction”. The Total cholesterol (mice on HF/HS diet [7]; [10]) was “reduction”, the LDL cholesterol level (mice on HF/HS diet [7]; preventive, TZD) was “downward trend” and the “TG (triglycerides)” value (mice on HF/HS diet [7]; preventive, TZD 10 mg/kg/day) was “↓”. The HDL (mice on HF/HS diet [7]; [12]) was “↓↓”, the Total cholesterol (mice on HF/HS diet [7]; [12]) was “↓↓” and the HDL cholesterol level (mice on HF/HS diet [7]; [13]) was “significant reduction”. The Total cholesterol level (mice on HF/HS diet [7]; [13]) was “significant reduction”, the “Plasma levels of triglycerides” value (mice on HF/HS diet [7]; preventive, TZD, after 8 weeks, no additional reduction after 15 and 23 weeks) was “significantly reduced” and the “ME, FAS, ACC (fatty acid synthesis) mRNA” value [8] was “↑↑”. For the same molecule, the “CYP7A1 (conversion oxysterol into biliary acids) mRNA” value (CYP7A1) was “↑↑”, the “PEPCK (target PPARγ) mRNA” value (PEPCK (target PPARγ)) was “↑” and the “HDL and VLDL cholesterol fractions” value (mice on HF/HS diet [9]; curative, after 3 weeks) was “reduction”. The “HDL, LDL and VLDL cholesterol fractions” value (mice on HF/HS diet [9]; preventive, weeks 8 and 15) was “reduction”.
